Paper PMC7052197 (Scientific Reports, 2020)
Ends that are not written are not given here.

Key:
αBgt = αBgt (Bungarus multicinctus, UniProt P60615); experiment: biochemical; type: binding
αCtx = αCtx (Naja kaouthia, UniProt P01391); experiment: biochemical; type: binding
Sequence of αCtx (P01391 whole entry, looked up): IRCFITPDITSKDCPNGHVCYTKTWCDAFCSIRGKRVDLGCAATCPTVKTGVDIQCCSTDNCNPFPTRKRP

Sequence of αBgt (P60615 22-95 limits assumed): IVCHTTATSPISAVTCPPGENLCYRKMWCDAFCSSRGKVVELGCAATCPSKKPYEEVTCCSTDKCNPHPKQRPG

Sequence	Kd (αBgt) [nM]	Kd (αCtx) [nM]
WRYYESSLEPYPD [HAP[L9E]]	91 ± 33	7000 ± 1000
WRYYESSLLPYPD [HAP]	29 ± 8	> 10000
